This note sets out measurements from patent US11767320B2, “Bicyclic dione compounds as inhibitors of KRAS” (INCYTE CORPORATION, priority 2020, dated 2023).

Structures are written as SMILES. Bounds are passed on as bounds.

For assay [1], the system named is MIA PaCa-2 (KRAS G12C) cells. In words: Cellular pERK HTRF assay. The assay is classed as cell-based. As to conditions: Homo sapiens; MIA PaCa-2 cells, 4 hours, phospho-ERK 1/2 HTRF; read-out: G12C_pERK (KRAS_G12C pERK assay IC50). The procedure:
MIA PaCa-2 (KRAS G12C; ATCC® CRL-1420), A427 (KRAS G12D; ATCC® HTB53), HPAF-II (KRAS G12D; ATCC® CRL-1997) and NCI-H838 (KRAS WT; ATCC® CRL-5844) cells are purchased from ATCC and maintained in RPMI 1640 media supplemented with 10% FBS (Gibco/Life Technologies). The cells are plated at 5000 cells per well (8 uL) into Greiner 384-well low volume, flat-bottom, tissue culture treated white plates and incubated overnight at 37° C. 5% CO2. The next morning, test compound stock solutions are diluted in media at 3× the final concentration, and 4 uL are added to the cells. The plate is mixed by gentle rotation for 30 seconds (250 rpm) at room temperature. The cells are incubated with the KRAS G12C and G12D compounds for 4 hours or 2 hours respectively at 37° C., 5% CO2.
4 uL of 4× lysis buffer with blocking reagent (1:25) (Cisbio) are added to each well and plates are rotated gently (300 rpm) for 30 minutes at room temperature. 4 uL per well of Cisbio anti Phospho-ERK 1/2 d2 is mixed with anti Phospho-ERK 1/2 Cryptate (1:1) are added to each well, mixed by rotation and incubated overnight in the dark at room temperature. Plates are read on the Pherastar plate reader at 665 nm and 620 nm wavelengths. IC50 determination is performed by fitting the curve of inhibitor percent inhibition versus the log of the inhibitor concentration using the GraphPad Prism 7 software.

In assay [2] the test system is MIA PaCa-2 cells (KRAS G12C). Kind of assay: Whole blood pERK1/2 HTRF assay. Particulars: Homo sapiens, compound in whole blood, 4 hours, phospho-ERK 1/2 HTRF, read-out: G12C_WB_pERK assay IC50. The assay is classed as cell-based. How it is done:
MIA PaCa-2 cells (KRAS G12C; ATCC® CRL-1420) and HPAF-II (KRAS G12D; ATCC® CRL-1997) are maintained in RPMI 1640 with 10% FBS (Gibco/Life Technologies). The cells are seeded into 96 well tissue culture plates (Corning #3596) at 25000 cells per well in 100 uL media and cultured for 2 days at 37° C. 5% CO2 so that they are approximately 80% confluent at the start of the assay. Whole Blood are added to the 1 uL dots of compounds (prepared in DMSO) in 96 well plates and mixed gently by pipetting up and down so that the concentration of the compound in blood is 1× of desired concentration. The media is aspirated from the cells and 50 uL per well of whole blood with G12C or G12D compound is added and incubated for 4 or 2 hours respectively at 37° C. 5% CO2. After dumping the blood, the plates are gently washed twice by adding PBS to the side of the wells and dumping the PBS from the plate onto a paper towel, tapping the plate to drain well. 50 ul/well of 1× lysis buffer #1 (Cisbio) with blocking reagent (1:25) (Cisbio) is then added and incubated at room temperature for 30 minutes with shaking (250 rpm). Following lysis, 16 uL of lysate is transferred into 384-well Greiner small volume white plate using an Assist Plus (Integra Biosciences, NH). 4 uL of 1:1 mixture of anti Phospho-ERK 1/2 d2 and anti Phospho-ERK 1/2 Cryptate (Cisbio) is added to the wells using the Assist Plus and incubated at room temperature overnight in the dark. Plates are read on the Pherastar plate reader at 665 nm and 620 nm wavelengths. IC50 determination is performed by fitting the curve of inhibitor percent inhibition versus the log of the inhibitor concentration using the GraphPad Prism 7 software.

For another assay, the target named is KRAS G12C (Homo sapiens, UniProt P01116, G12C). In words: GDP-GTP exchange assay (fluorescence based guanine nucleotide exchange, bodipy-GDP for GppNHp, SOS1). The assay is classed as biochemical. As to conditions: bodipy-loaded KRAS G12C, 2 hours pre-incubation with inhibitor, read-out: G12C_exchange (KRAS_G12C exchange assay IC50). A digest of the protocol: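 Bodipy-GDP-loaded KRAS G12C (5-25 nM final) pre-incubated 2 h with inhibitor in Hepes pH 7.5, MgCl2 buffer, then exchange started with 500 uM GppNHp and 150 nM SOS1 for 2 h at ambient temperature. G12D and G12V used 2.5 nM protein, with 4 h and 3 h exchange respectively. Fluorescence read at 485/520 nm; IC50 from four-parameter logistic fit.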
KRAS G12C, sequence (P01116 1-188 isoform P01116-2 G12C): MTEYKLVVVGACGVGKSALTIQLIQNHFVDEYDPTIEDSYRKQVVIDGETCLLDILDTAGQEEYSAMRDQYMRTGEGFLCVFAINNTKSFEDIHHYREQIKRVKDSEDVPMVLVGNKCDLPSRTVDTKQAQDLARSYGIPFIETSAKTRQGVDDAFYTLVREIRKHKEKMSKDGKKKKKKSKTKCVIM

Broadly, the IC50 is the point on the concentration scale where inhibition reaches its midpoint. As to `C=CC(=O)N1CC(F)(Cn2c(=O)c(=O)n(-c3c(C)ccnc3C(C)C)c3nc(-c4c(Cl)cccc4OC)c(Cl)cc32)C1` [Example 57, 1-((1-acryloyl-3-fluoroazetidin-3-yl)methyl)-7-chloro-6-(2-chloro-6-methoxyphenyl)-4-(2-isopropyl-4-methylpyridin-3-yl)-1,4-dihydropyrido[2,3-b]pyrazine-2,3-dione], the IC50 (in assay [1]; in assay [2]; at KRAS G12C) was at most 0.1 µM in each case.

For `C=CC(=O)N1CC(F)(Cn2c(=O)c(=O)n(-c3c(C(C)C)ccnc3C(C)C)c3nc(-c4c(C)cccc4OC)c(Cl)cc32)C1` [Example 63], the IC50 (in assay [1]; in assay [2]; on KRAS G12C) was at most 0.1 µM each time.

As for `C=CC(=O)N1CC(F)(Cn2c(=O)c(=O)n(-c3c(C(C)C)ccnc3C(C)C)c3nc(-c4c(Cl)cccc4OC)c(Cl)cc32)C1` [Example 62, 1-((1-acryloyl-3-fluoroazetidin-3-yl)methyl)-7-chloro-6-(2-chloro-6-methoxyphenyl)-4-(2,4-diisopropylpyridin-3-yl)-1,4-dihydropyrido[2,3-b]pyrazine-2,3-dione], the IC50 (in assay [1]; in assay [2]; on KRAS G12C) was at most 0.1 µM throughout.

As for `C=CC(=O)N1CC(F)(Cn2c(=O)c(=O)n(-c3c(C)ccnc3C(C)C)c3nc(-c4c(Cl)ccc5c4OCO5)c(Cl)cc32)C1` [Example 60, 1-((1-acryloyl-3-fluoroazetidin-3-yl)methyl)-7-chloro-6-(5-chlorobenzo[d][1,3]dioxol-4-yl)-4-(2-isopropyl-4-methylpyridin-3-yl)-1,4-dihydropyrido[2,3-b]pyrazine-2,3-dione], the IC50 is at most 0.1 µM in assay [1], 0.1 to 1 µM in assay [2] and at most 0.1 µM at KRAS G12C.

For `C=CC(=O)N1CC(F)(Cn2c(=O)c(=O)n(-c3c(C)ccnc3C(C)C)c3nc(-c4c(Cl)cccc4CO)c(Cl)cc32)C1` [Example 59, 1-((1-acryloyl-3-fluoroazetidin-3-yl)methyl)-7-chloro-6-(2-chloro-6-(hydroxymethyl)phenyl)-4-(2-isopropyl-4-methylpyridin-3-yl)-1,4-dihydropyrido[2,3-b]pyrazine-2,3-dione], the results for the IC50 (in assay [1]; in assay [2]; on KRAS G12C) were at most 0.1 µM, 0.1 to 1 µM and at most 0.1 µM, respectively.

For the compound `C=CC(=O)N1CC(F)(Cn2c(=O)c(=O)n(-c3c(C)ccnc3C(C)C)c3nc(-c4c(O)cccc4Cl)c(Cl)cc32)C1` [Example 56, 1-((1-acryloyl-3-fluoroazetidin-3-yl)methyl)-7-chloro-6-(2-chloro-6-hydroxyphenyl)-4-(2-isopropyl-4-methylpyridin-3-yl)-1,4-dihydropyrido[2,3-b]pyrazine-2,3-dione], the IC50 (in assay [1]; in assay [2]; at KRAS G12C) was at most 0.1 µM throughout.

As for `C=C(F)C(=O)N1CC(F)(Cn2c(=O)c(=O)n(-c3c(C(C)C)ccnc3C(C)C)c3nc(-c4c(O)cccc4Cl)c(Cl)cc32)C1` [Example 64, 7-chloro-6-(2-chloro-6-hydroxyphenyl)-4-(2,4-diisopropylpyridin-3-yl)-1-((3-fluoro-1-(2-fluoroacryloyl)azetidin-3-yl)methyl)-1,4-dihydropyrido[2,3-b]pyrazine-2,3-dione], the IC50 is at most 0.1 µM in assay [1], 0.1 to 1 µM in assay [2] and at most 0.1 µM on KRAS G12C.

`C=CC(=O)N1CC(F)(Cn2c(=O)c(=O)n(-c3c(C)ccnc3C(C)C)c3nc(-c4c(O)cccc4C(F)(F)F)c(Cl)cc32)C1` [Example 25, 1-((1-acryloyl-3-fluoroazetidin-3-yl)methyl)-7-chloro-6-(2-hydroxy-6-(trifluoromethyl)phenyl)-4-(2-isopropyl-4-methylpyridin-3-yl)-1,4-dihydropyrido[2,3-b]pyrazine-2,3-dione]: the IC50 (in assay [1]; at KRAS G12C) was at most 0.1 µM in each case.

Turning to `C=CC(=O)N1CC(F)(Cn2c(=O)c(=O)n(-c3c(C(C)C)ccnc3C(C)C)c3nc(-c4c(O)cccc4Cl)c(Cl)cc32)C1` [Example 61, 1-((1-acryloyl-3-fluoroazetidin-3-yl)methyl)-7-chloro-6-(2-chloro-6-hydroxyphenyl)-4-(2,4-diisopropylpyridin-3-yl)-1,4-dihydropyrido[2,3-b]pyrazine-2,3-dione], the IC50 (in assay [1]; in assay [2]; on KRAS G12C) was at most 0.1 µM in each case.

With `C=CC(=O)N1CC(F)(Cn2c(=O)c(=O)n(-c3c(C)ccnc3C(C)C)c3nc(-c4c(C)cccc4OC)c(Cl)cc32)C1` [Example 58, 1-((1-acryloyl-3-fluoroazetidin-3-yl)methyl)-7-chloro-4-(2-isopropyl-4-methylpyridin-3-yl)-6-(2-methoxy-6-methylphenyl)-1,4-dihydropyrido[2,3-b]pyrazine-2,3-dione], the IC50 in assay [1] was at most 0.1 µM; in assay [2], 0.1 to 1 µM; on KRAS G12C it was at most 0.1 µM.

Regarding `C=CC(=O)N1CC(F)(Cn2c(=O)c(=O)n(-c3c(C)ccnc3C(C)C)c3nc(-c4c(O)cccc4F)c(Cl)cc32)C1` [Example 17, 1-((1-acryloyl-3-fluoroazetidin-3-yl)methyl)-7-chloro-6-(2-fluoro-6-hydroxyphenyl)-4-(2-isopropyl-4-methylpyridin-3-yl)-1,4-dihydropyrido[2,3-b]pyrazine-2,3-dione], the IC50 (in assay [1]; on KRAS G12C) was at most 0.1 µM throughout.

Consider `C=CC(=O)N1CC(F)(Cn2c(=O)c(=O)n(-c3c(C(C)C)cccc3C(C)C)c3nc(-c4c(O)ccc(F)c4F)c(Cl)cc32)C1` [Example 16, 1-((1-acryloyl-3-fluoroazetidin-3-yl)methyl)-7-chloro-6-(2,3-difluoro-6-hydroxyphenyl)-4-(2,6-diisopropylphenyl)-1,4-dihydropyrido[2,3-b]pyrazine-2,3-dione], for which the IC50 (in assay [1]; at KRAS G12C) was at most 0.1 µM throughout.

Consider `C=CC(=O)N1CC(Cn2c(=O)c(=O)n(-c3c(C(C)C)cccc3C(C)C)c3nc(-c4ccccc4F)c(Cl)cc32)(OC)C1` [Example 8, 1-((1-acryloyl-3-methoxy-azetidin-3-yl)methyl)-7-chloro-4-(2,6-diisopropylphenyl)-6-(2-fluorophenyl)-1,4-dihydropyrido[2,3-b]pyrazine-2,3-dione], for which the IC50 (in assay [1]; at KRAS G12C) was 0.1 to 1 µM throughout.
